The nature of series [1]: (§1) Oral bioavailability in rat at 6 mg/kg. The format is ADME, organism-based. The note with it: in vivo.
The nature of series [2]: Half life in rat at 6 mg/kg, po. The format is ADME, organism-based. The arrangement: dose 6 mg/kg, route oral. The note with it: in vivo.
Series [3] is described as follows: (§2) AUC (0 to t) in rat at 6 mg/kg, po. The class given is ADME, organism-based, Plasma. The arrangement: dose 6 mg/kg, route oral. The note with it: plasma.
Series [4] in a line: (§3) Clearance in rat at 3 mg/kg, iv. The note with it: in vivo. The format is ADME, organism-based. Further details: dose 3 mg/kg, route intravenous.
For another series, the target named is T1, CYP1A2 (Homo sapiens, UniProt P05177).
T1 sequence (P05177 whole entry): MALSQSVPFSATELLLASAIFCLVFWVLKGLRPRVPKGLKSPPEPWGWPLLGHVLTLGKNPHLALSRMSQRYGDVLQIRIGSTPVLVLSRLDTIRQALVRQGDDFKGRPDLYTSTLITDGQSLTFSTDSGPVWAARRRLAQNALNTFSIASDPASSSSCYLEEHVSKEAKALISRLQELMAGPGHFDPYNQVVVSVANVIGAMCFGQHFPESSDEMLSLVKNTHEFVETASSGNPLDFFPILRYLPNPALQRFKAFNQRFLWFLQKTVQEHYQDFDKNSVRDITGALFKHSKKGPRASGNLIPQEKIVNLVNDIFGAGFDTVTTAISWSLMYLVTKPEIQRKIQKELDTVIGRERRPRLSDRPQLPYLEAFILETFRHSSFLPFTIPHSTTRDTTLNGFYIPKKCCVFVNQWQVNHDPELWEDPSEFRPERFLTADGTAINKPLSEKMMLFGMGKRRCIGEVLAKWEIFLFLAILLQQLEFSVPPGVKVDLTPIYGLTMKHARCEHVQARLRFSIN
As to the kind of experiment: Inhibition of CYP1A2 in human microsomes using phenacetin as substrate at 10 uM after 5 mins. The class given is ADME, Microsome. The note with it: probe phenacetin.

The next series concerns the target CYP2D6 (Homo sapiens, UniProt P10635). Kind of series: Inhibition of CYP2D6 in human microsomes using dextrpmethorphan as substrate at 10 uM after 5 mins. The class given is ADME, Microsome. The note with it: probe dextromethorphan (printed: dextrpmethorphan).
A further series has as its target CYP3A4 (Homo sapiens, UniProt P08684). Kind of series: Inhibition of CYP3A4 in human microsomes using midazolam as substrate at 10 uM after 5 mins. The note with it: probe midazolam. The class given is ADME, Microsome.
Series [5] is described as follows: Intrinsic clearance in human liver microsomes at 1 uM preincubated for 5 mins measured per mg protein by LC/MS/MS analysis. The format is ADME, Microsome. The note with it: read-out: CLH. (Microsomes from liver hold many membrane-bound enzymes, among them those of drug oxidation.)
Series [6] has as its target 11-beta-hydroxysteroid dehydrogenase 1 (Homo sapiens, UniProt P28845). Kind of series: Inhibition of human 11-beta HSD1 transfected in HEK293 cell microsomes assessed as decrease in [3H]cortisol generation using [3H]cortisone as substrate measured after 60 mins by scintillation proximity assay. The arrangement: species or system Microsome.
The test system of series [7] is Rattus norvegicus. The description is as §1. The format is ADME, organism-based. The note with it: in vivo.
Series [8] deals with Rattus norvegicus. The description is as §2. The note with it: in vivo. The arrangement: dose 6 mg/kg, route oral. The format is ADME, organism-based, Plasma.
In series [9] the test system is Rattus norvegicus. The description is as §3. The class given is ADME, organism-based. The arrangement: dose 3 mg/kg, route intravenous. The note with it: in vivo.

The structures appear in SMILES notation. pIC50: −log10 of the molar value.

Sequence of CYP2D6 (P10635 whole entry): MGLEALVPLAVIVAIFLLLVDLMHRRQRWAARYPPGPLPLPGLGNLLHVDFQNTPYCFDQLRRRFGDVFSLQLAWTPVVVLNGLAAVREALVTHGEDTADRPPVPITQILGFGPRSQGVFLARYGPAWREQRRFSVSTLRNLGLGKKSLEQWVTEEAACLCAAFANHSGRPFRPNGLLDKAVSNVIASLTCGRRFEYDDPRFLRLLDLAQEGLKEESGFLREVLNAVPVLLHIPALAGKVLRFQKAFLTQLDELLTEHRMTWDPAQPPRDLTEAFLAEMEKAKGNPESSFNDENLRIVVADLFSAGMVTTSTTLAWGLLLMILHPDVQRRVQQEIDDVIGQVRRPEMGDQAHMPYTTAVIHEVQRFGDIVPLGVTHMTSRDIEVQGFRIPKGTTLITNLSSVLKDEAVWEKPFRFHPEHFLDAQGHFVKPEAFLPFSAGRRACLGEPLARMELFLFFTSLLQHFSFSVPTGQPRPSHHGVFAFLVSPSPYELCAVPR
Sequence of CYP3A4 (P08684 whole entry): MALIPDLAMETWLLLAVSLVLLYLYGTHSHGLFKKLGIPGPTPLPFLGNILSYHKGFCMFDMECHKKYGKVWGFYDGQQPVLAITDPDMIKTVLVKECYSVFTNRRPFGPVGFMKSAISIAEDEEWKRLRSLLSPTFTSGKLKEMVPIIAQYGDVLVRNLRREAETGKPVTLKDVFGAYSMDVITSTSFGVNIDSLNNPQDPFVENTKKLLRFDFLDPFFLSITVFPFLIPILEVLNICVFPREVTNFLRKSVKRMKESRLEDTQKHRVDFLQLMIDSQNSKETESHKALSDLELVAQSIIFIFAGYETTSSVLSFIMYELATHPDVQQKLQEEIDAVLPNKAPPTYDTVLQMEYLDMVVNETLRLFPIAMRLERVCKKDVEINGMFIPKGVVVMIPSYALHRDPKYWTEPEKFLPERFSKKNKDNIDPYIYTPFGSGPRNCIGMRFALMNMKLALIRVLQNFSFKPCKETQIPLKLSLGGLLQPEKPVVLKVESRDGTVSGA
Sequence of 11-beta-hydroxysteroid dehydrogenase 1 (P28845 whole entry): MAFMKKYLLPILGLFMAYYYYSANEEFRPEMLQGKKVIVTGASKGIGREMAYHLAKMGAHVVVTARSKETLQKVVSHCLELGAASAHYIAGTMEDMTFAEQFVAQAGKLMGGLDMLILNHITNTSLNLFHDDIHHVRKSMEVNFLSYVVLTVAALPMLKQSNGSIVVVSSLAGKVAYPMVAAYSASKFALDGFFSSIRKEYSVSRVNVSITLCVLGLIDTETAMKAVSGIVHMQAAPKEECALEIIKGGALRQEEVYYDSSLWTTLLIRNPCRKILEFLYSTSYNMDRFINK

In the case of `Cc1c(Cl)cccc1S(=O)(=O)N1CCC[C@H](C(=O)NC2CCCCC2)C1`, the bioavailability – broadly, the share of a dose that reaches the circulation, judged against a reference dose that is usually intravenous – in series [1] was 8%. Besides, the half-life (in general, the time needed for the level to fall by half in the phase considered) in series [2] was 0.4 h. Besides, in [3], the AUC(0-t) – broadly, exposure summed from dosing to a finite time, without extrapolation to infinity – was 0.188 µM·h. For the same molecule, the clearance – broadly, the rate of elimination divided by the concentration – in series [4] came to 130 mL/min/kg. In addition, the inhibition – broadly, the change of the read-out against control, counted positive when it falls – at 5 min, 10 µM on CYP1A2 turned out to be 16%; on CYP2D6, 34%; against CYP3A4, 73%. Further, the microsomal CLint at 1 µM in [5] came to 209 µL/min/mg. Further, in [6], the pIC50 (commonly −log10 of the IC50, conventionally taken in molar units) is 9.10. On to `Cc1c(Cl)cccc1C(=O)N1CCC[C@H](c2nc(-c3ccc(Br)cc3)no2)C1`, for which, in series [6], the negative logarithm of the IC50 (pIC50) is < 6.00. Still for that read-out and setting: for `Cc1c(Cl)cccc1C(=O)N1CCC[C@H](c2nc(-c3cccc(Br)c3)no2)C1` the value was 6.51. The same measure, in the same setting: with `Cc1c(Cl)cccc1C(=O)N1CCC[C@H](c2nc(-c3ccccc3Br)no2)C1` the figure was 6.08.

For `Cc1c(Cl)cccc1C(=O)N1CCC[C@H](c2nc(-c3ccccc3Cl)no2)C1`, the pIC50 in series [6] was 6.56.

For `Cc1c(Cl)cccc1C(=O)N1CCC[C@H](c2nc(-c3cccs3)no2)C1`, the pIC50 in series [6] was < 6.00. The same measure, in the same setting: for `Cc1c(Cl)cccc1C(=O)N1CCC[C@H](c2nc(-c3ccc(F)cc3)no2)C1` the value was 6.02; for `Cc1c(Cl)cccc1C(=O)N1CCC[C@H](c2nc(C3CCCCC3)no2)C1`, 6.21; for `Cc1c(Cl)cccc1C(=O)N1CCC[C@H](c2nc(C34CC5CC(CC(C5)C3)C4)no2)C1`, < 6.00.

As to `CC1(C)C(C(=O)N2CCC[C@H](c3nc(-c4ccccc4)no3)C2)C1(C)C`, the negative logarithm of the IC50 (pIC50) in [6] was 6.10.

Turning to `O=C(C1CC1)N1CCC[C@H](c2nc(-c3ccccc3)no2)C1`, the pIC50 in [6] is 7.04. In the case of `O=C(C1CCC1)N1CCC[C@H](c2nc(-c3ccccc3)no2)C1`, the negative logarithm of the IC50 (pIC50) in [6] was 6.49. With `O=C(C1CCCCC1)N1CCC[C@H](c2nc(-c3ccccc3)no2)C1`, the F in the series with Rattus norvegicus [7] is listed as 36%. Besides, the half-life in series [2] is 1.3 h. In the series on Rattus norvegicus [8], the AUCt amounted to 25.3 µM·min. In the series with Rattus norvegicus [9], the CL turned out to be 24 mL/min/kg. Moreover, the inhibition at 5 min, 10 µM against CYP1A2 came out at 16%; on CYP2D6 it was 12%; against CYP3A4, 7.7%. Besides, in series [5], the microsomal CLint at 1 µM amounted to 44 µL/min/mg. The pIC50 in [6] was 7.15.

As for `O=C(C1CCCCCC1)N1CCC[C@H](c2nc(-c3ccccc3)no2)C1`, the pIC50 in series [6] was 5.83. In the case of `Cn1ccc2c(C(=O)N3CCC[C@H](c4nc(-c5ccccc5)no4)C3)cccc21`, in [6], the pIC50 is 6.85.

Regarding `Cn1cccc1C(=O)N1CCC[C@H](c2nc(-c3ccccc3)no2)C1`, in series [6], the negative-log IC50 (pIC50) is 6.15. The same measure, in the same setting: for `O=C(c1ccco1)N1CCC[C@H](c2nc(-c3ccccc3)no2)C1` the value was 6.18.

On to `Cc1c(Br)cccc1C(=O)N1CCC[C@H](c2nc(-c3ccccc3)no2)C1`, for which the F with Rattus norvegicus [7] stood at 25%. In [2], the half-life was 2.1 h. Moreover, the AUCt with Rattus norvegicus [8] was 34.1 µM·min. In addition, the CL with Rattus norvegicus [9] was 16 mL/min/kg. In addition, the inhibition at 5 min, 10 µM against CYP1A2 came to 0%; at CYP2D6, 0%; against CYP3A4 it was 22%. Further, in series [5], the microsomal CLint at 1 µM was determined as 63 µL/min/mg. Moreover, the negative logarithm of the IC50 (pIC50) in [6] was 8.48. Regarding `Cc1cccc(C(=O)N2CCC[C@H](c3nc(-c4ccccc4)no3)C2)c1Cl`, the negative logarithm of the IC50 (pIC50) in [6] is 7.55. Same read-out and setting: with `O=C(c1ccc(Cl)cc1)N1CCC[C@H](c2nc(-c3ccccc3)no2)C1` the figure was 6.56. Regarding `O=C(c1cccc(Cl)c1)N1CCC[C@H](c2nc(-c3ccccc3)no2)C1`, in series [6], the negative-log IC50 (pIC50) is 6.13. On the same count and under the same terms, for `O=C(c1ccccc1Cl)N1CCC[C@H](c2nc(-c3ccccc3)no2)C1` the value was 6.07; for `Cc1ccccc1C(=O)N1CCC[C@H](c2nc(-c3ccccc3)no2)C1`, 6.36. Still for that read-out and setting: for `O=C(c1ccccc1)N1CCC[C@H](c2nc(-c3ccccc3)no2)C1` the value was 5.62; for `Cc1c(Cl)cccc1C(=O)N1CCC[C@H](c2noc(-c3ccccc3)n2)C1`, 6.97; for `Cc1c(Cl)cccc1C(=O)N1CCC[C@H](c2nc(-c3ccccc3)no2)C1`, 7.57. `Cc1c(Cl)cccc1C(=O)N1CCC[C@H](n2nnc(-c3ccccc3)n2)C1`: the negative logarithm of the IC50 (pIC50) in series [6] was 6.23. Regarding `Cc1c(Cl)cccc1C(=O)N1CCC[C@H](c2nnc(-c3ccccc3)[nH]2)C1`, the pIC50 in series [6] was 6.02. Same read-out and setting: for `Cc1c(Cl)cccc1C(=O)N1CCC[C@H](c2nnc(-c3ccccc3)o2)C1` the value was 5.88.
